Results reported in US20110263423A1, “Plant Health Composition” (BASF SE, priority 2008, published 2011).

Experiments:
Assay type in all cases: in vivo
Soybeans (M-SOY 6001 RR) = assay: Soybean field trial Brazil, ternary mixture, Colby synergism (Example 7); conditions: soybean M-SOY 6001 RR, Ia 40, epoxiconazol 40, pyraclostrobin 65 g a.i./ha
Description: Soybeans were grown in 2008 at the CEDUP “Caetano Vieira da Costa” in Sao José do Cerrito, Santa […], Brazil. The variety M-SOY 6001 RR was planted in 2007, 11 Nov., at a seeding rate of 300.000 plants per ha. Row spacing was 50 cm. The trial was setup as a randomized bloc design with 4 replications. Plot size was 12.5 m^2. Fungicide treatments were applied at BBCH GS 70-79 (pods reached 15-20 mm of final […]). The fungicides were used as formulations. Compound Ia was applied as an EC formulation (62.5 g/L-EC) at 0.64 L/ha (40 g ai/ha). […] The adjuvant DASH HC was added to the spray tank with 0.3% (v/v). Finally, compound Ia was applied in a mixture together with epoxiconazol and pyraclostrobin forming a ternary mixture according to the present invention, using a coformulation of all three compounds (50 g/L of compound Ia+50 g/L of epoxiconazol+81 g/L of pyraclostrobin-EC). This formulation was sprayed at a rate of 0.8 […] compound […] epoxiconazol+65 g a.i./ha pyraclostrobin). The formulations were diluted in water. Total spray volume for foliar application was 150 L/ha. The trial was conducted under low disease pressure. […] Plots were harvested at maturity of the soybean crop and the yield (thousand grain weight) was determined (table 11). The efficacy in yield increase was calculated as % increase of the Thousand Grain Weight (TGW) by the treatments compared to the untreated control. […]

Maize (Dekalb RX940) = assay: Maize field trial, Dinuba 2008 (Example 5)
Description: Maize was grown in 2008 in a field trial at the BASF experimental station in Dinuba, 10181 Avenue 416, Calif., U.S.A. The variety Dekalb RX940 was planted at a seeding rate of 10 plants/m^2. Four rows per plot were planted with a row spacing of 0.75 m. The trial was setup as a randomized bloc design with 5 replications, each. Plot size was 43 m^2. Compound Ia was used as an EC formulation (62.5 g a.i./L) with a dose rate of 0.8 L per hectar (50 g a.i./ha). The formulation was applied in a total spray volume of 400 L/ha. Compound Ia was sprayed at a growth stage 51/55 (BBCH) with a tractor mounted spray boom with VS11003 spray nozzles at 3 bar spray pressure.
(§1) No disease symptoms were visible at the application time and no symptoms were detected at later stages.
Green leaf area, as an indicator of plant vigor, was assessed beginning of ripening by estimating the green leaf area in 10 randomly chosen plants per plot.
At maturity the grain was harvested and the grain yield per plot, as an indicator of plant yield, was determined (kg/plot). Finally, the grain yield per hectare, as an aditional indicator of plant yield, was calculated (dt/ha). Furthermore, the Thousand Grain Weight (TGW) was determined in the second trial (Crow C300 42).

[1] = system: Soybeans (Pioneer 93-M-11, Crow C300 42); assay: Soybean field trials, Dinuba 2008 (Example 4)
Description: Soybeans were grown in 2008 in two field trials at the BASF experimental station in Dinuba, 10181 Avenue 416, Calif., U.S.A. In one trial, the variety Pioneer 93-M-11 was planted at a seeding rate of 88 kg/ha. In a second trial, the variety Crow C300 42 was planted at the same seeding rate. Both trials were setup as randomized complete block design with 5 replications, each. Plot size was 42 m^2. Compound la was used as an EC formulation (62.5 g a.i./L) with a dose rate of 0.64 L per hectar (40 g a.i./ha). The formulation was applied in a total spray volume of 300 L/ha. Compound Ia was sprayed at growth stage 34/37 (BBCH) with a tractor mounted spray boom with VS11003 spray nozzles at 3 bar spray pressure.
as §1
Green leaf area, as an indicator of plant vigor, was assessed in the second trial (variety Crow C300 42) when all pods had reached their final size by estimating the green leaf area in 10 randomly chosen plants per plot. At maturity the grain was harvested and the grain yield per plot, as an indicator of plant yield, was determined (kg/plot). Finally, the grain yield per hectare was calculated (dt/ha). Thousand Grain Weight (TGW) was determined in the second trial (Crow C300 42).

[2] = system: spring wheat (cv. Passat); assay: Spring wheat pot trial, moderate drought stress (Example 3)
Description: Spring wheat (cv. Passat) was cultivated in Mitcherlich pots as described above in example 1. The experiment was conducted with 6 replications in a vegetation hall. Experiments were carried out under semi controlled conditions at very low disease-pressure with insignificant infection rates, protected from any undesired rain or water impact. The water consumption of each pot was calculated on the basis of the recorded measurements of the weight of the pots prior to each irrigation event up to the defined set point. Pots without crop coverage were used to estimate the evaporation of the soil.
Nitrogen fertilizer (totally 1.75 g N/pot) was added in equal amounts at 3 stages to allow optimal growth conditions throughout the life cycle. All plants/pots were grown at optimal water supply by watering 2-3 times a day to 60% of the water holding capacity of the soil until growth stage 55 (BBCH). Then, pots were only watered to 30% of the maximum water holding capacity of the soil to apply moderate drought stress. Compound Ia (62.5 g/l, 2 L in 400 L water/ha) was applied at growth stage 39/49 (BBCH scale), which is an EC formulation of comound Ia. Control plants were not treated.
At maturity of the plants the grain was harvested and uniformly dried to 5% moisture content. Number of grains per pot was counted after harvest. Thousand Grain Weight (TGW), as an indicator of plant yield, was calculated based on grain yield per pot and number of grains per pot. Transpiration was calculated on the basis of the amount of water added to the respective pots and the estimated soil evaporation. Water use efficiency, as an indicator of drought stress tolerance of a plant, was calculated based on the respective transpiration per pot.

[3] = 40 g a.i./ha, listed as compound Ia
[4] = moderate drought stress, 2 L/ha EC at BBCH 39/49

Cn1cc(C(=O)Nc2ccccc2-c2cc(F)c(F)c(F)c2)c(C(F)F)n1 [Compound Ia, N-(3′,4′,5′-trifluorobiphenyl-2-yl)-3-difluoromethyl-1-methyl-1H-pyrazole-4-carboxamide]
Observed efficacy (% increase of TGW vs untreated control) (Soybeans (M-SOY 6001 RR)): 0%
TGW (Soybeans (M-SOY 6001 RR); BBCH 70-79): 153 g
Grain yield, increase as % of untreated (Maize (Dekalb RX940); 50 g a.i./ha): (+4.5%)
TGW, increase as % of untreated (Maize (Dekalb RX940); 50 g a.i./ha): (+3.3%)
Grain yield (Maize (Dekalb RX940); 50 g a.i./ha at BBCH 51/55): 154.7 dt/ha
TGW (Maize (Dekalb RX940); 50 g a.i./ha at BBCH 51/55): 317.0 g
% Green leaf area (Maize (Dekalb RX940); 50 g a.i./ha at BBCH 51/55, beginning of ripening): 49.0%
Grain yield, increase as % of untreated (Maize (Dekalb RX940); 50 g a.i./ha, listed as compound Ia): 4.5%
Soybean grain yield (Trial 1) Pioneer 93M11, increase as % of untreated ([1]; 40 g a.i./ha): (+11.6%)
Soybean grain yield (Trial 2) Crow C300 42, increase as % of untreated ([1]; 40 g a.i./ha): (+6.5%)
Soybean grain yield, Mean of two trials, increase as % of untreated ([1]; 40 g a.i./ha): (+8.5%)
Soybean grain yield (Trial 1) Pioneer 93M11 ([1]; 40 g a.i./ha at BBCH 34/37): 45.5 dt/ha
Soybean grain yield (Trial 2) Crow C300 42 ([1]; 40 g a.i./ha at BBCH 34/37): 67.1 dt/ha
Soybean grain yield, Mean of two trials ([1]; 40 g a.i./ha at BBCH 34/37): 56.3 dt/ha
Soybean grain yield (Trial 1) Pioneer 93M11, increase as % of untreated [1, 3]: ~12%
Soybean grain yield, Mean of two trials, increase as % of untreated [1, 3]: 8.5%
TGW ([1]; soybean Crow C300 42 (second trial), 40 g a.i./ha at BBCH 34/37): 177.0 g
% Green leaf area ([1]; soybean Crow C300 42 (second trial), 40 g a.i./ha at BBCH 34/37, pods at final size): 88.4%
TGW, increase as % of untreated ([1]; soybean Crow C300 42, 40 g a.i./ha): (+5.7%)
Thousand Grain Weight, change vs untreated control ([2]; moderate drought stress): (+4%)
Transpiration, change vs untreated control ([2]; moderate drought stress): (−4%)
Water use efficiency, change vs untreated control ([2]; moderate drought stress): (+3%)
Transpiration ([2]; moderate drought stress (30% water holding capacity from BBCH 55), 2 L/ha EC at BBCH 39/49): 26.5 L water/pot
Thousand Grain Weight [2, 4]: 31.2 g
Water use efficiency [2, 4]: 2.02 g grain/L water
